The values below come from patent US7439251B2, “Methods and compositions for treatment of central and peripheral nervous system disorders and novel compounds useful therefor” (Israel Institute for Biological Research, priority 2002, dated 2008).

For assay [1], the system named is rat pheochromocytoma cells transfected with M1 mAChR. The assay can be described thus: Neurite outgrowth in rat pheochromocytoma cells transfected with M1 mAChR. The format is cell-based. The note with it: 24 hrs, without neurotrophins.
Protocol: For determination of neurite outgrowth, cells plated in six-well plates were used 3-5 days after plating. Growth factors were added 1 day after plating and muscarinic agonists were added for the last 24 hrs.
Cells were observed under an inverted microscope. The percent of cells with neurite longer than cell diameter were scored in three random fields of several hundred cells from each well. Results were expressed as a percent of cells with neurites. Treatments were performed in triplicate cells. Both NGF (50 ng/ml) and EGF (100 ng/ml) were added 1 day after plating. Muscarinic agonists were added 24 hours before scoring.
The test system of assay [2] is rat pheochromocytoma cells transfected with the M1 mAChR. As for the experimental part: Confluent rat pheochromocytoma cells transfected with the M1 mAChR cultures were detached with trypsin, washed and plated in 24well, 6-well, 60-mm or 100-mm plates that were precoated with rat tail collagen (Sigma, Israel). Several experiments were performed in serum-free medium. For 3-(4,5-dimethylthiazol-2-yl)-2,5-diphenyl-tetrazolium bromide (MIT) assay, cells (1.5×10^4) were plated in 96-well collagen-precoated plates, in serum-free medium, with or without various drugs for 24 hours. For differentiation, cells were grown in the presence of 1% FCS and 1% HS, with addition of 50 ng/ml NGF for 7 days, to cause full differentiation. […] After 7 days, cells were washed and the medium was either replaced to serum-free, or cells were detached and replated in serum-free medium. Cells in serum-free medium were treated either with Aβ peptides that were previously “aged” or with H2O2. Tested compounds were added together with the insults for the indicated time, unless otherwise stated.
Cells were grown and treated on glass coverslips. After treatments, cells were fixed in cold methanol for 5 min at −20° C. followed by treatment with cold acetone at 4° C. for 2 min and washing in PBS. The coverslips were fluorescently stained with DAPI (4,6-diamidino-2-phenylindole; 5 mg/ml, Sigma, Israel) an intercalating agent that enables visualization of chromatin condensation in the cell nuclei for 15 min at room temperature. Cells were washed three times with PBS, mounted in a solution of glycerol containing 22 mM 1,4 dizabicyclo(2,2,2)octane (Sigma, Israel) to prevent fading, and viewed for nuclear chromatin morphology with a fluorescence microscope. Apoptotic and viable cells were counted (200 cells per coverslip, each experiment was performed in duplicates).
The TUNEL (Terminal deoxynucleotidyl transferase (TdT) mediated dUTP nick end labeling) method enzymatically labels DNA fragments at the 3′OH ends (representing the DNA strand breaks) with fluorescein-dUPT (Boehringer Mannheim, Germany). Briefly, following treatment, cells grown on Chamber slides were fixed with paraformaldehyde solution (4%) in PBS, pH 7.4 for 30 min at room temperature. Following washing with PBS cells were permeabilized using 0.1% Triton X-100, 0.1% sodium citrate solution, for 2 min on ice (4° C.), washed with PBS and 50 μl of TUNEL reaction mixture was added on each sample for 1 hr at 37° C., in a humidified chamber. Evans Blue reagent (diluted 1:2000 in PBS) was added for 5 min and the slides were viewed with fluorescence microscope.
Cells were differentiated for 7 days and detached from the plates with Trypsin. 10^6 cells were replated in 50-mm collagen-coated plates in serum-free medium in presence or absence of various treatments. 200-g-centrifuged pellets were prepared and resuspended in 300 μl PBS. 4 ml of cold methanol (−20° C.) were added to each test tube and the fixation was carried out for 15 min at −20° C. Cells were washed in PBS, spun and resuspended in 1 ml PBS. Five microliters of Propidium iodide stock solution (Sigma; 10 mg/ml) and 5 μl of 20 mg/ml solution of RNAse A were added for 5-10 min at room temperature. Fluorescence of individual nuclei was measured using Fluorescence Activated Cell Sorter (FACScan; Becton Dickinson Corp.) excited at 488 nm wavelength and collected through 575±21 nm BP filter. The data were analyzed by Cell Quest software computer system. By this method we were able to measure DNA content of the cells (apoptotic cells have less DNA). Cells in G1 phase of cell cycle are after mitosis and have less DNA than cells in G2/M phase (before and during mitosis). Apoptotic cells were identified as the pre-G1 phase.

Another assay has as its target T1, human M1 receptor (Homo sapiens, UniProt P11229).
T1 construct: expressed in transfected cells
T1 sequence (P11229 1-460): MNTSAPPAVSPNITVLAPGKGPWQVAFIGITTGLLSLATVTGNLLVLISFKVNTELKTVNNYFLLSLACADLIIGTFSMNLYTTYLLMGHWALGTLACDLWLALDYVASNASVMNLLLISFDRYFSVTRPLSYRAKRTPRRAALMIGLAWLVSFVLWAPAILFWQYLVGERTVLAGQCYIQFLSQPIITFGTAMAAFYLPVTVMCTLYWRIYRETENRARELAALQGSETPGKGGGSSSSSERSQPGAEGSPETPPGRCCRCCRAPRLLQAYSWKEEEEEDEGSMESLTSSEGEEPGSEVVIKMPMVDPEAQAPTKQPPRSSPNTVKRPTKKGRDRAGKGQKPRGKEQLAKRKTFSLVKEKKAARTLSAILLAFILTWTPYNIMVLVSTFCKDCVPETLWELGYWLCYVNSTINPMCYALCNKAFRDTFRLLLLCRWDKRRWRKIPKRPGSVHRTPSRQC
As to the kind of experiment: Arachidonic acid (AA) release, human M1. In kind it is cell-based.

The nature of assay [3]: Morris water maze in C57BL/10SnJ (small hippocampus) vs C57BL6J mice. In kind it is in vivo. The note with it: for reversal test, swimming speed: normal hippocampi mice, AF150(S) 0.5 mg/kg, AF267B 1 mg/kg. As to the method: C57BL/10SnJ (B10) mice were selected due to their small hippocampi and decreased number of hippocampal pyramidal neurons; the cell loss seemed to be associated with poor spatial learning.
Each group of mice was randomly divided into 7 treatment groups (n=12-14/group). […] All tested compounds and saline were administered once a day for 4 days before starting the behavioral testing, and then for the duration of the 5-day experiment, 30 minutes before testing.
Training: Each mouse was trained for four consecutive days, four trials (one block) per day, in which the platform position remained constant and was located in the center of the southeast quadrant of the pool. Within each block of four trials, each mouse started at each of the starting locations, but the sequence of locations was randomly selected. A trial consisted of placing a mouse by hand into the water facing the wall of the pool at one of four starting locations, north, south, east or west, around the pool's perimeter. Escape latency (the time to find the platform), path length (the distance traveled by the mouse) and speed (the swimming rate of the mouse) were recorded on each trial by the monitoring system.
For each mouse, the path length, escape latency, and swimming speed of the four trials on each of the 4 training days were grouped into blocks (one block for each day). […] Specific comparisons were performed, using the simple main effects contrasts analysis, which is specifically suited for testing significant interactions.
Transfer test. During trial No. 17, on the fourth day, the platform was entirely removed from the pool (a probe trial). In this trial, the mouse was placed into the water for a limited period (30 s), and its spatial bias was measured by recording the relative distribution of escape latency and path length over the four quadrants of the pool.
Reversal test. During trials 18-21, on the fifth day, the platform position was changed to the northwest quadrant, opposite to the training quadrant Thus, during reversal learning, the platform location was moved relative to the configuration of objects within the room, but the pool occupied the same place within the room throughout the entire experiment. Testing of the […] and measures taken were the same as in training.
For each mouse, the escape latency, path length and swimming speed of the reversal test (trials No. 18-21) were grouped into one block.

[4] abbreviates: small hippocampus mice, both doses.
The mark [5] stands for this setting: small hippocampus mice, AF150(S) both doses, AF267B the higher dose.
Setting [6] is: small hippocampus mice, AF compounds 0.5 and 1 mg/kg i.p., rivastigmine, nicotine 1 mg/kg i.p.
Where [7] appears, read: normal hippocampus mice, AF150(S) at 1 mg/kg.

Consider `CC[C@@H]1SC2(CCN(C)CC2)NC1=O` [AF267B, (S)-2-ethyl-8-methyl-1-thia-4,8-diaza-spiro[4.5]decan-3-one], for which the “Maximal neurite outgrowth response (percent of cells with neurites)” value in assay [1] is 60%. Moreover, in assay [2], the “H2O2-induced apoptosis (DAPI)” value is given as “prevented”, the “apoptotic cell death induced by starvation (DAPI)” value is “significantly protect”, the “apoptotic death during starvation (FACS)” value is “protected cells from apoptotic death” and the “β-amyloid increased apoptotic population (FACS)” value is “reduced the apoptotic population significantly”. In addition, the “AA release vs. CCh (as 100%)” value at human M1 receptor turned out to be 100%. Also, in assay [3], the “reversal test, swimming speed” value is “significantly decreased”. Also, in assay [3] (normal hippocampus mice), the “training, escape latency” value is “did not significantly affect the escape latencies” and the “training, swimming speed” value is recorded as “had no such effect”. In assay [3] (small hippocampus mice), the “training, swimming speed” value is “enhanced the swimming speed in a dose dependent manner” and the “transfer test, spatial bias” value is recorded as “complete spatial bias”. Also, in assay [3] (setting [4]), the “reversal test, escape latency” value was “improved the escape latency”. Also, the “training, path length” value in assay [3] (setting [5]) was “positively affected the performance”. In assay [3] (setting [6]), the “training, escape latency” value is on record as “positively affected the training performance”.
Regarding `CC1=NCC2(CCN(C)CC2)S1` [AF150(S), 2,8-Dimethyl-1-thia-3,8-diaza-spiro[4.5]dec-2-ene], the “Maximal neurite outgrowth response (percent of cells with neurites)” value in assay [1] worked out at 30%. Besides, in assay [2], the “H2O2-induced apoptosis (DAPI)” value was “prevented”, the “apoptotic cell death induced by starvation (DAPI)” value is listed as “significantly protect”, the “apoptotic death during starvation (FACS)” value is “protected cells from apoptotic death” and the “β-amyloid 25-35 induced apoptosis (TUNEL)” value is reported as “able to block the apoptosis”. Also, the “β-amyloid increased apoptotic population (FACS)” value in assay [2] is on record as “reduced the apoptotic population significantly”. Further, the “reversal test, swimming speed” value in assay [3] is recorded as “significantly decreased”. In addition, in assay [3] (normal hippocampus mice), the “training, escape latency” value is given as “increased the escape latencies” and the “training, swimming speed” value is given as “impaired the swimming speed”. In assay [3] (normal hippocampus mice, AF150(S) at 0.5 mg/kg), the “reversal test, escape latency” value is “impaired the escape latency”. In assay [3] (setting [7]), the “reversal test, path length” value is “impairment of reversal learning” and the “transfer test, spatial bias” value is “only a partial spatial bias”. The “training, path length” value in assay [3] (normal hippocampus mice, AF150(S) only the higher dose) was “impaired the path length”. In assay [3] (small hippocampus mice), the “training, swimming speed” value is “enhancing effect of AF150(S) was equal in both doses” and the “transfer test, spatial bias” value was “complete spatial bias”. Further, the “reversal test, escape latency” value in assay [3] (setting [4]) was “improved the escape latency”. In addition, the “training, path length” value in assay [3] (setting [5]) was “positively affected the performance”. The “training, escape latency” value in assay [3] (setting [6]) is “positively affected the training performance”.
On to `CC[C@@H]1SC2(CCNCC2)NC1=O` [AF292, (S)-2-Ethyl-1-thia-4,8-diaza-spiro[4.5]decan-3-one], for which, at human M1 receptor, the “AA release vs. CCh (as 100%)” value is more than 88%.
